Holding throughout (assay): relative cell number vs DMSO control (72 h) (% of DMSO); higher = less growth inhibition (more cells)
Holding throughout (details): sgRNA knockout: sgNT

One experiment has as its system BT-20. How it is done:
(§1)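 QMAP-Seq: a pool of 5 breast cancer cell lines (ZR-75-1, SKBR3, HCC-38, MDA-MB-231, BT-20), each carrying 12 doxycycline-inducible Cas9 sgRNA perturbations (11 knockouts plus non-targeting sgNT), was treated with compounds for 72 h at four 10-fold doses (10 nM-10 uM or 1 nM-1 uM range). Barcodes were amplified and sequenced, and cell number was interpolated from 293T spike-in standard curves. The result is expressed as % of the median of DMSO wells. Two biological replicates.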

The test system of another experiment is HCC-38. How it is done:
as §1

Another experiment concerns MDA-MB-231. How it is done:
as §1

The next experiment relates to SKBR3. How it is done: as §1
A further experiment has as its system ZR-75-1. How it is done: as §1

± gives the standard deviation of the averaged measurements.

Take `COc1cc([C@@H]2c3cc4c(cc3[C@@H](O[C@@H]3O[C@@H]5CO[C@@H](C)O[C@H]5[C@H](O)[C@H]3O)[C@H]3COC(=O)[C@H]23)OCO4)cc(OC)c1O` [Etoposide]: the relative cell number in the experiment on BT-20 (10 nM) is 87 ± 6.6; in the experiment with BT-20 (100 nM) it was 83 ± 1.2; with BT-20 (1000 nM), 52.6 ± 0.56; in the experiment on BT-20 (10000 nM) it was 36 ± 15; in the experiment with HCC-38 (10 nM), 75.4 ± 33; with HCC-38 (100 nM), 84.8 ± 13. In addition, the relative cell number with HCC-38 (1000 nM) is 31.6 ± 5.3; in the experiment on HCC-38 (10000 nM), 20.5 ± 1.8; in the experiment on MDA-MB-231 (10 nM), 81.6 ± 3.5; with MDA-MB-231 (100 nM) it was 71.7 ± 1.1; in the experiment on MDA-MB-231 (1000 nM), 21.8 ± 1.8; in the experiment with MDA-MB-231 (10000 nM), 11.9 ± 1.1. For the same compound, the relative cell number turned out to be 58 ± 10 in the experiment on SKBR3 (10 nM); 50.1 ± 4.5 with SKBR3 (100 nM); 31.3 ± 9.5 in the experiment on SKBR3 (1000 nM); 12.6 ± 12 in the experiment with SKBR3 (10000 nM); 56 ± 2.7 with ZR-75-1 (10 nM); 54.5 ± 4.6 in the experiment with ZR-75-1 (100 nM). Also, the relative cell number turned out to be 46.8 ± 4.2 in the experiment with ZR-75-1 (1000 nM) and 31.5 ± 1.5 in the experiment with ZR-75-1 (10000 nM).

With `Cc1ncc([N+](=O)[O-])n1CC(O)CCl` (stereo not given) [Ornidazole], the relative cell number with BT-20 (10 nM) was 103 ± 7.7; in the experiment with BT-20 (100 nM), 81.8 ± 1.3; with BT-20 (1000 nM) it was 96.5 ± 6.5; with BT-20 (10000 nM) it was 104 ± 17; in the experiment with HCC-38 (10 nM) it was 84.2 ± 8.7; with HCC-38 (100 nM) it was 88.1 ± 7.5. Besides, the relative cell number in the experiment with HCC-38 (1000 nM) was determined as 114 ± 19; in the experiment on HCC-38 (10000 nM), 97.7 ± 13; in the experiment with MDA-MB-231 (10 nM), 103.6 ± 0.42; in the experiment with MDA-MB-231 (100 nM), 108 ± 7.5; in the experiment on MDA-MB-231 (1000 nM), 74.3 ± 12; in the experiment on MDA-MB-231 (10000 nM), 138 ± 14. Also, the relative cell number in the experiment with SKBR3 (10 nM) came to 70.1 ± 3.7; in the experiment on SKBR3 (100 nM), 102 ± 12; in the experiment with SKBR3 (1000 nM), 91.3 ± 26; in the experiment with SKBR3 (10000 nM) it was 104 ± 29; in the experiment on ZR-75-1 (10 nM), 95 ± 18; with ZR-75-1 (100 nM), 76.4 ± 24. The relative cell number in the experiment with ZR-75-1 (1000 nM) amounted to 121 ± 71; with ZR-75-1 (10000 nM), 84.3 ± 25.

Turning to `O=P1(NCCCl)OCCCN1CCCl` (stereo not given) [Ifosfamide], the relative cell number was 71.6 ± 2.8 with BT-20 (10 nM); 89.6 ± 16 in the experiment with BT-20 (100 nM); 109.5 ± 0.23 with BT-20 (1000 nM); 84.7 ± 16 in the experiment with BT-20 (10000 nM); 107 ± 4.6 in the experiment on HCC-38 (10 nM); 96 ± 20 in the experiment with HCC-38 (100 nM). Moreover, the relative cell number with HCC-38 (1000 nM) turned out to be 105 ± 14; in the experiment on HCC-38 (10000 nM), 100 ± 11; in the experiment on MDA-MB-231 (10 nM) it was 75.5 ± 8; in the experiment with MDA-MB-231 (100 nM) it was 95.4 ± 25; with MDA-MB-231 (1000 nM) it was 103 ± 13; in the experiment on MDA-MB-231 (10000 nM), 95.5 ± 5.4. Moreover, the relative cell number stood at 74.2 ± 5.4 with SKBR3 (10 nM); 74.6 ± 24 in the experiment with SKBR3 (100 nM); 82.8 ± 25 in the experiment on SKBR3 (1000 nM); 71.9 ± 38 in the experiment on SKBR3 (10000 nM); 69.6 ± 31 in the experiment on ZR-75-1 (10 nM); 107 ± 35 in the experiment with ZR-75-1 (100 nM). The relative cell number was 79.1 ± 40 in the experiment on ZR-75-1 (1000 nM) and 85.6 ± 8.3 in the experiment with ZR-75-1 (10000 nM).

As for `COC(=O)Nc1nc2cc(C(=O)c3ccccc3)ccc2[nH]1` [Mebendazole], the relative cell number with BT-20 (10 nM) came to 87.1 ± 7.3; in the experiment on BT-20 (100 nM), 78.9 ± 21; with BT-20 (1000 nM) it was 25 ± 7.1; in the experiment with BT-20 (10000 nM), 20.6 ± 6.8; in the experiment with HCC-38 (10 nM), 97.2 ± 18; with HCC-38 (100 nM), 83.2 ± 4.6. For the same compound, the relative cell number in the experiment with HCC-38 (1000 nM) came to 18.2 ± 7.5; in the experiment with HCC-38 (10000 nM), 19.9 ± 0.56; in the experiment with MDA-MB-231 (10 nM), 110 ± 10; in the experiment on MDA-MB-231 (100 nM), 79.4 ± 38; in the experiment on MDA-MB-231 (1000 nM), 31.4 ± 12; in the experiment on MDA-MB-231 (10000 nM), 26.5 ± 1.1. In addition, the relative cell number was 96.3 ± 10 with SKBR3 (10 nM); 59.8 ± 7.3 in the experiment with SKBR3 (100 nM); 10.6 ± 9.4 in the experiment on SKBR3 (1000 nM); 7.21 ± 5.9 with SKBR3 (10000 nM); 71.7 ± 21 with ZR-75-1 (10 nM); 64.7 ± 17 with ZR-75-1 (100 nM). Besides, the relative cell number came to 36.8 ± 8.2 in the experiment on ZR-75-1 (1000 nM) and 14 ± 8.6 with ZR-75-1 (10000 nM).

`C[C@]12CC[C@@H]3c4ccc(O)cc4C[C@@H](CCCCCCCCC[S+]([O-])CCCC(F)(F)C(F)(F)F)[C@H]3[C@@H]1CC[C@@H]2O` (stereo not given in full) [Fulvestrant]: the relative cell number in the experiment with BT-20 (10 nM) was found to be 95.9 ± 6.4; in the experiment with BT-20 (100 nM) it was 79.5 ± 6.8; in the experiment with BT-20 (1000 nM), 86.6 ± 16; in the experiment on BT-20 (10000 nM), 110 ± 24; in the experiment on HCC-38 (10 nM), 83.8 ± 12; with HCC-38 (100 nM) it was 102 ± 2. Moreover, the relative cell number worked out at 103 ± 6.4 with HCC-38 (1000 nM); 94.5 ± 1.7 in the experiment with HCC-38 (10000 nM); 83.6 ± 3.7 in the experiment on MDA-MB-231 (10 nM); 93.5 ± 22 in the experiment with MDA-MB-231 (100 nM); 89.8 ± 4 in the experiment on MDA-MB-231 (1000 nM); 92 ± 12 with MDA-MB-231 (10000 nM). In addition, the relative cell number came to 90.75 ± 0.73 in the experiment on SKBR3 (10 nM); 48.8 ± 3.3 in the experiment with SKBR3 (100 nM); 65.8 ± 26 in the experiment with SKBR3 (1000 nM); 65.9 ± 19 with SKBR3 (10000 nM); 66.3 ± 28 with ZR-75-1 (10 nM); 41.9 ± 3.1 with ZR-75-1 (100 nM). In addition, the relative cell number came to 73.3 ± 26 in the experiment on ZR-75-1 (1000 nM) and 84 ± 39 in the experiment on ZR-75-1 (10000 nM).

On to `COc1cc(OC)c(/C=C/S(=O)(=O)Cc2ccc(OC)c(NCC(=O)O)c2)c(OC)c1` [Rigosertib], for which the relative cell number in the experiment with BT-20 (10 nM) is 96.5 ± 1.7; in the experiment on BT-20 (100 nM), 70.2 ± 4; with BT-20 (1000 nM), 29.8 ± 11; in the experiment with BT-20 (10000 nM), 29.5 ± 3.1; with HCC-38 (10 nM), 96.39 ± 0.69; in the experiment with HCC-38 (100 nM) it was 44.2 ± 2.3. Also, the relative cell number in the experiment on HCC-38 (1000 nM) was found to be 26.9 ± 2.6; with HCC-38 (10000 nM), 24.8 ± 2.4; in the experiment with MDA-MB-231 (10 nM) it was 97.2 ± 1.3; in the experiment with MDA-MB-231 (100 nM), 94.6 ± 9.7; in the experiment on MDA-MB-231 (1000 nM) it was 22.9 ± 3.4; with MDA-MB-231 (10000 nM) it was 21.6 ± 4.6. In addition, the relative cell number with SKBR3 (10 nM) was 88.9 ± 21; with SKBR3 (100 nM) it was 5.08 ± 2.9; with SKBR3 (1000 nM), 11 ± 1; in the experiment with SKBR3 (10000 nM), 11.1 ± 1.8; with ZR-75-1 (10 nM) it was 115 ± 13; in the experiment with ZR-75-1 (100 nM) it was 18.8 ± 0.89. Moreover, the relative cell number was 16.6 ± 2.9 in the experiment on ZR-75-1 (1000 nM) and 16.3 ± 4.1 with ZR-75-1 (10000 nM).

The values above are taken from the supplement of paper PMC7661543.
